The text below walks through data of ChEMBL document CHEMBL1128274, “6-Aminoquinolones: a new class of quinolone antibacterials?” (1995).

Values after ≈ are worked out from the molar mass of the structure shown.

One assay has as its system Acinetobacter calcoaceticus. In words: Tested in vitro for inhibitory activity against gram negative bacteria Acinetobacter calcoaceticus OSMPV 113 strain. The class given is functional.
Consider `Nc1cc2c(=O)c(C(=O)O)cn(C3CC3)c2cc1N1CCSCC1`, for which the MIC was 1 µg/mL (≈ 2.89 µM).

As to `Nc1cc2c(=O)c(C(=O)O)cn(C3CC3)c2cc1Cl`, the MIC is 128 µg/mL (≈ 459 µM).

Consider `Nc1cc2c(=O)c(C(=O)O)cn(C3CC3)c2c(F)c1N1CCSCC1`, for which the MIC was 1 µg/mL (≈ 2.75 µM).

On to `CN1CCN(c2c(N)c(N)c3c(=O)c(C(=O)O)cn(C4CC4)c3c2F)CC1`, for which the MIC is 2 µg/mL (≈ 5.33 µM).

The next assay relates to Enterobacter cloacae. In words: Tested in vitro for inhibitory activity against gram negative bacteria Enterobacter cloacae OMNFI 174 strain. The class given is functional.
On to `Nc1cc2c(=O)c(C(=O)O)cn(C3CC3)c2cc1N1CCSCC1`, for which the MIC was 0.5 µg/mL (≈ 1.45 µM).

As to `Nc1cc2c(=O)c(C(=O)O)cn(C3CC3)c2cc1Cl`, the MIC is 16 µg/mL (≈ 57.4 µM).

On to `Nc1cc2c(=O)c(C(=O)O)cn(C3CC3)c2c(F)c1N1CCSCC1`, for which the MIC is 1 µg/mL (≈ 2.75 µM).

Compound `CN1CCN(c2c(N)c(N)c3c(=O)c(C(=O)O)cn(C4CC4)c3c2F)CC1` gave an MIC of 0.12 µg/mL (≈ 0.32 µM).

The subject of a further assay is Escherichia coli. In words: Tested in vitro for inhibitory activity against gram negative bacteria Escherichia coli ATCC 8739 cell lines at 10 ug/mL. The class given is functional.
For `Nc1cc2c(=O)c(C(=O)O)cn(C3CC3)c2cc1N1CCSCC1`, the MIC turned out to be 0.03 µg/mL (≈ 0.0868 µM).

Another assay has as its system Escherichia coli. In words: Tested in vitro for inhibitory activity against gram negative bacteria Escherichia coli ATCC 8739 cell lines at 5.8 ug/mL. The assay is classed as functional.
`Nc1cc2c(=O)c(C(=O)O)cn(C3CC3)c2c(F)c1N1CCSCC1` gave an MIC of 0.12 µg/mL (≈ 0.33 µM).

The next assay relates to Escherichia coli. In words: Tested in vitro for inhibitory activity against gram negative bacteria Escherichia coli ATCC 8739 strain. The assay is classed as functional.
`Nc1cc2c(=O)c(C(=O)O)cn(C3CC3)c2cc1Cl`: the MIC came out at 2 µg/mL (≈ 7.18 µM).

Another assay concerns Escherichia coli. In words: Tested in vitro for inhibitory activity against gram negative bacteria Escherichia coli ATCC 8739 cell lines. The class given is functional.
For `CN1CCN(c2c(N)c(N)c3c(=O)c(C(=O)O)cn(C4CC4)c3c2F)CC1`, the MIC came out at 0.03 µg/mL (≈ 0.0799 µM).

Another assay deals with Escherichia coli. In words: Tested in vitro for inhibitory activity against gram negative bacteria Escherichia coli ISF 432 cell lines at 10 ug/mL. The class given is functional.
With `Nc1cc2c(=O)c(C(=O)O)cn(C3CC3)c2cc1N1CCSCC1`, the MIC was 0.03 µg/mL (≈ 0.0868 µM).

The next assay deals with Escherichia coli. In words: Tested in vitro for inhibitory activity against gram negative bacteria Escherichia coli ISF 432 cell lines at 5.8 ug/mL. The class given is functional.
Take `Nc1cc2c(=O)c(C(=O)O)cn(C3CC3)c2c(F)c1N1CCSCC1`: the MIC came to 0.06 µg/mL (≈ 0.165 µM).

Another assay deals with Escherichia coli. In words: Tested in vitro for inhibitory activity against gram negative bacteria Escherichia coli ISF 432 strain. The assay is classed as functional.
In the case of `Nc1cc2c(=O)c(C(=O)O)cn(C3CC3)c2cc1Cl`, the MIC is 2 µg/mL (≈ 7.18 µM).

Turning to `CN1CCN(c2c(N)c(N)c3c(=O)c(C(=O)O)cn(C4CC4)c3c2F)CC1`, the MIC is 0.03 µg/mL (≈ 0.0799 µM).

Another assay relates to Providencia stuartii. In words: Tested in vitro for inhibitory activity against gram negative bacteria Providencia stuartii CNUR 5 cell lines. The assay is classed as functional.
`Nc1cc2c(=O)c(C(=O)O)cn(C3CC3)c2cc1Cl`: the MIC worked out at 64 µg/mL (≈ 230 µM).

In the next assay the test system is Shigella. In words: Tested in vitro for inhibitory activity against gram negative bacteria Shigella enteritidis. The class given is functional.
Turning to `Nc1cc2c(=O)c(C(=O)O)cn(C3CC3)c2cc1N1CCSCC1`, the MIC was determined as 0.5 µg/mL (≈ 1.45 µM).

`Nc1cc2c(=O)c(C(=O)O)cn(C3CC3)c2cc1Cl` registered an MIC of 16 µg/mL (≈ 57.4 µM).

The compound `Nc1cc2c(=O)c(C(=O)O)cn(C3CC3)c2c(F)c1N1CCSCC1` came in with an MIC of 4 µg/mL (≈ 11 µM).

The compound `CN1CCN(c2c(N)c(N)c3c(=O)c(C(=O)O)cn(C4CC4)c3c2F)CC1` showed an MIC of 0.25 µg/mL (≈ 0.666 µM).

For a further assay, the system named is Staphylococcus epidermidis. In words: Tested in vitro for inhibitory activity against gram positive bacteria Staphylococcus epidermidis HCF berset C strain. The class given is functional.
Consider `Nc1cc2c(=O)c(C(=O)O)cn(C3CC3)c2cc1N1CCSCC1`, for which the MIC amounted to 2 µg/mL (≈ 5.79 µM).

For `Nc1cc2c(=O)c(C(=O)O)cn(C3CC3)c2cc1Cl`, the MIC is 64 µg/mL (≈ 230 µM).

On to `Nc1cc2c(=O)c(C(=O)O)cn(C3CC3)c2c(F)c1N1CCSCC1`, for which the MIC came out at 1 µg/mL (≈ 2.75 µM).

Turning to `CN1CCN(c2c(N)c(N)c3c(=O)c(C(=O)O)cn(C4CC4)c3c2F)CC1`, the MIC amounted to 4 µg/mL (≈ 10.7 µM).

For another assay, the system named is Staphylococcus aureus. In words: Tested in vitro for inhibitory activity against gram positive bacteria Staphylococcus aureus ATCC 6538 strain. The assay is classed as functional.
As to `Nc1cc2c(=O)c(C(=O)O)cn(C3CC3)c2cc1N1CCSCC1`, the MIC was 0.5 µg/mL (≈ 1.45 µM).

With `Nc1cc2c(=O)c(C(=O)O)cn(C3CC3)c2cc1Cl`, the MIC worked out at 128 µg/mL (≈ 459 µM).

`Nc1cc2c(=O)c(C(=O)O)cn(C3CC3)c2c(F)c1N1CCSCC1` yielded an MIC of 0.5 µg/mL (≈ 1.38 µM).

Compound `CN1CCN(c2c(N)c(N)c3c(=O)c(C(=O)O)cn(C4CC4)c3c2F)CC1` yielded an MIC of 2 µg/mL (≈ 5.33 µM).

Another assay has as its system Staphylococcus aureus. In words: Tested in vitro for inhibitory activity against gram positive bacteria Staphylococcus aureus MPR 5 strain. The class given is functional.
With `Nc1cc2c(=O)c(C(=O)O)cn(C3CC3)c2cc1N1CCSCC1`, the MIC was 0.5 µg/mL (≈ 1.45 µM).

`Nc1cc2c(=O)c(C(=O)O)cn(C3CC3)c2cc1Cl`: the MIC was found to be 128 µg/mL (≈ 459 µM).

`Nc1cc2c(=O)c(C(=O)O)cn(C3CC3)c2c(F)c1N1CCSCC1` came in with an MIC of 0.25 µg/mL (≈ 0.688 µM).

In the case of `CN1CCN(c2c(N)c(N)c3c(=O)c(C(=O)O)cn(C4CC4)c3c2F)CC1`, the MIC was determined as 2 µg/mL (≈ 5.33 µM).

For a further assay, the system named is Enterococcus faecalis. In words: Tested in vitro for inhibitory activity against gram positive bacteria Streptococcus faecalis LEP Br strain. The assay is classed as functional.
In the case of `Nc1cc2c(=O)c(C(=O)O)cn(C3CC3)c2cc1N1CCSCC1`, the MIC was found to be 8 µg/mL (≈ 23.2 µM).

The compound `Nc1cc2c(=O)c(C(=O)O)cn(C3CC3)c2cc1Cl` showed an MIC of 128 µg/mL (≈ 459 µM).

Turning to `Nc1cc2c(=O)c(C(=O)O)cn(C3CC3)c2c(F)c1N1CCSCC1`, the MIC was found to be 4 µg/mL (≈ 11 µM).

`CN1CCN(c2c(N)c(N)c3c(=O)c(C(=O)O)cn(C4CC4)c3c2F)CC1` had an MIC of 4 µg/mL (≈ 10.7 µM).

The test system of a further assay is Staphylococcus epidermidis. In words: Tested in vitro for inhibitory activity against gram positive bacteria Staphylococcus epidermidis CPHL A2 strain. The class given is functional.
Turning to `Nc1cc2c(=O)c(C(=O)O)cn(C3CC3)c2cc1N1CCSCC1`, the MIC came to 1 µg/mL (≈ 2.89 µM).

As for `Nc1cc2c(=O)c(C(=O)O)cn(C3CC3)c2cc1Cl`, the MIC was determined as 128 µg/mL (≈ 459 µM).

Turning to `Nc1cc2c(=O)c(C(=O)O)cn(C3CC3)c2c(F)c1N1CCSCC1`, the MIC turned out to be 0.5 µg/mL (≈ 1.38 µM).

Take `CN1CCN(c2c(N)c(N)c3c(=O)c(C(=O)O)cn(C4CC4)c3c2F)CC1`: the MIC came out at 4 µg/mL (≈ 10.7 µM).

In a further assay the test system is Klebsiella pneumoniae. In words: Tested in vitro for inhibitory activity against gram negative bacteria Klebsiella pneumoniae ATCC 10031 strain. The class given is functional.
`Nc1cc2c(=O)c(C(=O)O)cn(C3CC3)c2cc1N1CCSCC1` displayed an MIC of 0.03 µg/mL (≈ 0.0868 µM).

Consider `Nc1cc2c(=O)c(C(=O)O)cn(C3CC3)c2cc1Cl`, for which the MIC turned out to be 2 µg/mL (≈ 7.18 µM).

The compound `Nc1cc2c(=O)c(C(=O)O)cn(C3CC3)c2c(F)c1N1CCSCC1` had an MIC of 0.03 µg/mL (≈ 0.0826 µM).

The compound `CN1CCN(c2c(N)c(N)c3c(=O)c(C(=O)O)cn(C4CC4)c3c2F)CC1` returned an MIC of 0.03 µg/mL (≈ 0.0799 µM).

For the next assay, the system named is Providencia stuartii. In words: Tested in vitro for inhibitory activity against gram negative bacteria Providencia stuartii CNUR 5 strain. The class given is functional.
In turn, `Nc1cc2c(=O)c(C(=O)O)cn(C3CC3)c2cc1N1CCSCC1` returned an MIC of 1 µg/mL (≈ 2.89 µM).

As to `Nc1cc2c(=O)c(C(=O)O)cn(C3CC3)c2c(F)c1N1CCSCC1`, the MIC was found to be 0.5 µg/mL (≈ 1.38 µM).

In the case of `CN1CCN(c2c(N)c(N)c3c(=O)c(C(=O)O)cn(C4CC4)c3c2F)CC1`, the MIC was determined as 2 µg/mL (≈ 5.33 µM).

The subject of the next assay is Pseudomonas aeruginosa. In words: Tested in vitro for inhibitory activity against gram negative bacteria Pseudomonas aeruginosa ATCC 9027 strain. The assay is classed as functional.
`Nc1cc2c(=O)c(C(=O)O)cn(C3CC3)c2cc1N1CCSCC1`: the MIC was determined as 2 µg/mL (≈ 5.79 µM).

Regarding `Nc1cc2c(=O)c(C(=O)O)cn(C3CC3)c2cc1Cl`, the MIC was 128 µg/mL (≈ 459 µM).

Compound `Nc1cc2c(=O)c(C(=O)O)cn(C3CC3)c2c(F)c1N1CCSCC1` showed an MIC of 4 µg/mL (≈ 11 µM).

Compound `CN1CCN(c2c(N)c(N)c3c(=O)c(C(=O)O)cn(C4CC4)c3c2F)CC1` gave an MIC of 4 µg/mL (≈ 10.7 µM).
